This note sets out measurements from patent US6972111B1, “Rosin amine anti-fouling agents” (Bayer Aktiengesellschaft, priority 1999, dated 2005).

For this experiment, the system named is cyprid larvae of the barnacle Balanus amphitrite. Description: Settlement assay of cyprid larvae of the barnacle Balanus amphitrite. Format: in vivo. Conditions: cyprid larvae in seawater test solution, 27° C.±2; Spearman-Kärber method. As for the experimental part: The rate of settlement of laboratory reared cyprid larvae of the barnacle Balanus amphitrite was determined for testing the activity of candidate anti-fouling compounds. Settlement Assay Tests are carried out in four replicates in sterile polystyrene multi well plates. Between 25 and 40 cyprid larvae are injected in the dishes containing either 2 ml of test solution (see below), solvent control or a positive control (Dichloro-n-octyl-isothiazolinone). Dishes are incubated for 24 h at a temperature of 27° C.±2. After incubation the cyprids are screened for signs of toxicity. Larvae are classified in three categories: A) alive and swimming; B) alive but not active; C) dead. The test is terminated by addition of a drop of 20% formaldehyde and the numbers of settled and non-settled larvae are counted. Settlement is evaluated as follows: 1) Non settled: not attached free swimming cyprids; 2) settled cyprids: attached, but not metamorphosed cyprids; 3) barnacles: attached juvenile barnacles. Categories 2 and 3 are considered to be settled. Percentage settlement in test solution is compared with controls. Estimates of the median effect concentration (EC-50) after […]. are calculated using the Spearman-Kärber method. All seawater used is of natural origin and filtered unto 0.2 micron. […]

On to `CCCCCCCCn1sc(Cl)c(Cl)c1=O` [reference*, 4,5-dichloro-n-octylisothiazolinone], for which the “EC50 for settlement inhibition in ppm” value is 0.37 ppm.
